Reference: ChEMBL document CHEMBL1154913, “Sesquiterpene lactones from Anthemis melanolepis and their antibacterial and cytotoxic activities. Prediction of their pharmacokinetic profile” (2010)
≈ marks a conversion by molar mass, not a printed value. Calls of active or inactive are those of the source. The rule behind the calls is not given here.

Tests used:
[1] = system: Pseudomonas aeruginosa; assay: Antibacterial activity against Pseudomonas aeruginosa clinical isolate after 48 hrs by serial dilution technique; type: functional
[2] = system: Agrobacterium tumefaciens; assay: Antibacterial activity against Agrobacterium tumefaciens A 281 after 48 hrs by serial dilution technique; type: functional; conditions: A 281, 48 h
[3] = system: Pseudomonas tolaasii; assay: Antibacterial activity against Pseudomonas tolaasii after 48 hrs by serial dilution technique; type: functional
[4] = system: Staphylococcus aureus; assay: Antibacterial activity against Staphylococcus aureus ATCC 6538 after 48 hrs by serial dilution technique; type: functional; conditions: ATCC 6538, 48 h
[5] = system: Proteus mirabilis; assay: Antibacterial activity against Proteus mirabilis clinical isolate after 48 hrs by serial dilution technique; type: functional, organism-based
[6] = system: Salmonella enterica; assay: Antibacterial activity against Salmonella enteritidis ATCC 13076 after 48 hrs by serial dilution technique; type: functional, Salmonella enterica subsp. enterica serovar Enteritidis; conditions: ATCC 13076, 48 h
[7] = system: Micrococcus luteus; assay: Antibacterial activity against Micrococcus luteus clinical isolate after 48 hrs by serial dilution technique; type: functional
[8] = system: Bacillus cereus; assay: Antibacterial activity against Bacillus cereus clinical isolate after 48 hrs by serial dilution technique; type: functional
[9] = system: Escherichia coli; assay: Antibacterial activity against Escherichia coli ATCC 35218 after 48 hrs by serial dilution technique; type: functional; conditions: ATCC 35218, 48 h
[10] = system: Micrococcus luteus; assay: Antibacterial activity against Sarcina lutea ATCC 9341 after 48 hrs by serial dilution technique; type: functional; conditions: ATCC 9341, 48 h
[11] = system: MCF7; assay: Cytotoxicity against human MCF7 cells at 100 uM after 48 hrs by SRB assay; type: functional, cell-based
[12] = system: SF-268; assay: Cytotoxicity against human SF268 cells after 48 hrs by SRB assay; type: functional; conditions: SF-268, 48 h
[13] = system: NCI-H460; assay: Cytotoxicity against human H460 cells at 100 uM after 48 hrs by SRB assay; type: functional, cell-based
[14] = system: SF-268; assay: Cytotoxicity against human SF268 at 100 uM cells after 48 hrs by SRB assay; type: functional, cell-based
[15] = system: Candida albicans; assay: Antifungal activity against Candida albicans clinical isolate after 48 hrs by serial dilution technique; type: functional
[16] = system: MCF7; assay: Cytotoxicity against human MCF7 cells after 48 hrs by SRB assay; type: functional; conditions: MCF7, 48 h
[17] = system: NCI-H460; assay: Cytotoxicity against human H460 cells after 48 hrs by SRB assay; type: functional; conditions: NCI-H460, 48 h

Structure (SMILES) | MIC [1] [µg/mL] | MIC [2] [µg/mL] | MIC [3] [µg/mL] | MIC [4] [µg/mL] | MIC [5] | MIC [6] [µg/mL] | MIC [7] [µg/mL] | MIC [8] [µg/mL] | MIC [9] [µg/mL] | MIC [10] [µg/mL] | GI50 [12] [µM] | LC50 [13] | TGI [13] | LC50 [14] | MIC [15] [µg/mL] | further results
C=C1C(=O)O[C@H]2/C=C(\C)[C@@H](O)CC[C@@]3(C)O[C@@H]3[C@H](O)[C@H]12 | 50 (≈ 178 µM) | 25 (≈ 89.2 µM) | 25 (≈ 89.2 µM) | 1.25 (≈ 4.46 µM) | inactive | 25 (≈ 89.2 µM) | 12.5 (≈ 44.6 µM) | 12.5 (≈ 44.6 µM) | 25 (≈ 89.2 µM) | 6.25 (≈ 22.3 µM) | – | – | – | – | – | –
C=C1C(=O)O[C@H]2C[C@@]3(C)[C@H](O)CC[C@@](C)(O)[C@@H]3[C@@H](O)[C@H]12 | 50 (≈ 177 µM) | 25 (≈ 88.5 µM) | 25 (≈ 88.5 µM) | 1.25 (≈ 4.43 µM) | inactive | 25 (≈ 88.5 µM) | 12.5 (≈ 44.3 µM) | 12.5 (≈ 44.3 µM) | 25 (≈ 88.5 µM) | 6.25 (≈ 22.1 µM) | 40.3 | inactive | inactive | inactive | – | GI50 [11]: inactive; LC50 [11]: inactive; TGI [11]: inactive; GI50 [13]: inactive; TGI [14]: inactive
C=C1C(=O)O[C@H]2C[C@@]3(C)[C@H](O)CCC(=C)[C@@H]3[C@@H](O)[C@H]12 | 25 (≈ 94.6 µM) | 25 (≈ 94.6 µM) | 25 (≈ 94.6 µM) | 0.625 (≈ 2.36 µM) | inactive | 25 (≈ 94.6 µM) | 6.25 (≈ 23.6 µM) | 6.25 (≈ 23.6 µM) | 25 (≈ 94.6 µM) | 6.25 (≈ 23.6 µM) | 42.7 | inactive | inactive | inactive | 25 (≈ 94.6 µM) | GI50 [16]: 52.3 µM; LC50 [16]: 85.8 µM; TGI [16]: 64.2 µM; TGI [14]: inactive; GI50 [17]: 69 µM
C=C1C(=O)O[C@H]2C[C@]3(C)[C@H](O)CCC(=C)[C@@H]3[C@@H](O)[C@H]12 [ANTHEMIN B] | – | – | – | – | – | – | – | – | – | – | 52.3 | inactive | inactive | inactive | – | GI50 [11]: inactive; LC50 [11]: inactive; TGI [11]: inactive; TGI [12]: 80.3 µM; GI50 [13]: inactive
C=C1C[C@@H]2OC(=O)C(=C)[C@H]2[C@@H](O)/C=C(\C)CCC1=O [ANTHEMIN C] | – | – | – | 1.25 (≈ 4.77 µM) | inactive | – | 12.5 (≈ 47.7 µM) | 12.5 (≈ 47.7 µM) | – | 25 (≈ 95.3 µM) | – | – | – | – | – | –
c1ccc(-c2ccc(C(c3ccccc3)n3ccnc3)cc2)cc1 (centres undefined) [BIFONAZOLE] | – | – | – | – | inactive | – | – | – | – | – | – | – | – | – | 200 (≈ 644 µM) | –
C=C1C(=O)O[C@H]2C[C@@]3(C)[C@H](C(=C)CC[C@@H]3O)[C@@H](O)[C@H]12 [ELEGALACTONE A] | – | – | – | 50 (≈ 189 µM) | inactive | – | 50 (≈ 189 µM) | – | – | – | 76 | inactive | inactive | inactive | – | GI50 [11]: inactive; LC50 [11]: inactive; TGI [11]: inactive; GI50 [13]: inactive; TGI [14]: inactive
CN[C@@H]1[C@H](O[C@H]2[C@H](O[C@H]3[C@H](O)[C@@H](O)[C@H](N=C(N)N)[C@@H](O)[C@@H]3N=C(N)N)O[C@@H](C)[C@]2(O)C=O)O[C@@H](CO)[C@H](O)[C@H]1O [STREPTOMYCIN] | – | 100 (≈ 172 µM) | 200 (≈ 344 µM) | – | inactive | 200 (≈ 344 µM) | 50 (≈ 86 µM) | 50 (≈ 86 µM) | 100 (≈ 172 µM) | 50 (≈ 86 µM) | – | – | – | – | – | –
C=C1C(=O)O[C@H]2/C=C(\C)[C@@H](O)CC/C(C)=C/[C@@H](O)[C@H]12 [TATRIDIN A] | 25 (≈ 94.6 µM) | 25 (≈ 94.6 µM) | 25 (≈ 94.6 µM) | 0.625 (≈ 2.36 µM) | inactive | 25 (≈ 94.6 µM) | 6.25 (≈ 23.6 µM) | 6.25 (≈ 23.6 µM) | 25 (≈ 94.6 µM) | 6.25 (≈ 23.6 µM) | – | – | – | – | 25 (≈ 94.6 µM) | –
C=C1C(=O)O[C@H]2CC(=C)[C@@H](O)CC/C(C)=C/[C@@H](O)[C@H]12 [TATRIDIN B] | 25 (≈ 94.6 µM) | 25 (≈ 94.6 µM) | 25 (≈ 94.6 µM) | 0.625 (≈ 2.36 µM) | inactive | 25 (≈ 94.6 µM) | 6.25 (≈ 23.6 µM) | 6.25 (≈ 23.6 µM) | 25 (≈ 94.6 µM) | 6.25 (≈ 23.6 µM) | – | – | – | – | 25 (≈ 94.6 µM) | –
CC[C@]1(O)C[C@@H]2CN(CCc3c([nH]c4ccccc34)[C@@](C(=O)OC)(c3cc4c(cc3OC)N(C)[C@H]3[C@@](O)(C(=O)OC)[C@H](OC(C)=O)[C@]5(CC)C=CCN6CC[C@]43[C@@H]65)C2)C1 [VINBLASTINE] | – | – | – | – | – | – | – | – | – | – | < 0.01 | – | – | – | – | GI50 [16]: < 0.01 µM; TGI [16]: 1.6 µM; TGI [12]: 1.64 µM; CC50 ([12]; read-out: LC50 (the source's name)): 2.48 µM; GI50 [17]: < 0.01 µM; TGI [17]: 0.35 µM
